The subject of one assay is A-375. Nature of the assay: MITF: Counter assay: A375 proliferation Measured in Cell-Based System Using Plate Reader - 2084-03_Inhibitor_Dose_DryPowder_Activity. [Related pubchem assays (depositor defined):AID488944]. The format is functional. The following applies: Homo sapiens.
A short description of assay [1]: non-specific cell cytotoxicity, dose response, cytotoxicity control for PAX8 inhibitor project, plate reader, dry powder samples (AID 743021). It counts as functional, cell-based.
The target of assay [2] is ATP-dependent molecular chaperone HSP82 (Candida albicans (strain WO-1) (Yeast), UniProt C4YTQ8). The assay is described as follows: loss of DOC-induced GRE-beta-galactosidase reporter signal, dose response, Hsp90 inhibitor project, S. cerevisiae, luminescence (AID 2400).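 Further: beta-galactosidase luminescence from glucocorticoid response element reporter as proxy for Hsp90 function; inhibitor potency where signal loss means Hsp90 inhibition.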 The format is functional, cell-based.
A short description of assay [3]: Counterscreen for AddAB inhibitors: absorbance-based bacterial cell-based high throughput dose response assay for inhibitors of bacterial viability. [Related pubchem assays (depositor defined):AID435030, AID449728, AID449731, AID488942, AID488955, AID488956]. The format is functional. A general note: Counterscreens check selectivity or assay interference.
Assay [4] is described as follows: Shn3 3'UTR reporter inhibitors, dose response, cell-based, Clone20 osteoblasts, firefly luciferase, cherry-picked (AID 624132).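 Further: firefly luciferase luminescence from reporter carrying the Shn3 3'UTR in osteoblasts.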 The format is functional.
The target of assay [5] is T1, Serine/threonine-protein phosphatase (Candida dubliniensis (strain CD36 / CBS 7987 / NCPF 3949 / NRRLY-17841) (Yeast), UniProt B9W6M3).
T1 sequence (B9W6M3 whole entry): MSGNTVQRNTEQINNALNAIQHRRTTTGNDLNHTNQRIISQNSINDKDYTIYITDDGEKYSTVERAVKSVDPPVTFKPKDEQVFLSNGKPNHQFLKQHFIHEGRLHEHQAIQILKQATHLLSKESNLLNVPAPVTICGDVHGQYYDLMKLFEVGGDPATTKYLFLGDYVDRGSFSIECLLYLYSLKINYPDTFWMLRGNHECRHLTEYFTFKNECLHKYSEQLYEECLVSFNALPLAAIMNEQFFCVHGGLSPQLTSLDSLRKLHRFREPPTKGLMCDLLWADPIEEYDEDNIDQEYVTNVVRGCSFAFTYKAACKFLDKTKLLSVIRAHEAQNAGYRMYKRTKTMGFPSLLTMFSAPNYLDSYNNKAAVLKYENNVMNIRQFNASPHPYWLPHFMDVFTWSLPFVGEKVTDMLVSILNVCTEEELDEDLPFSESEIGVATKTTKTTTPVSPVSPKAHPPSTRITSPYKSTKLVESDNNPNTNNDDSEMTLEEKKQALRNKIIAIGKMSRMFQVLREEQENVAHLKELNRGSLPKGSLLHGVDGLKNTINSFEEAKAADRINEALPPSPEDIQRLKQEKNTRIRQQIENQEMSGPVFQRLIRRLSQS
Nature of the assay: calcineurin pathway inhibitors in yeast reporter, dose response, S. cerevisiae, CDRE-lacZ, luminescence, secondary (AID 2388).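 Further: yeast reporter cells carrying a calcineurin-responsive lacZ construct stimulated with calcium chloride; luminescent beta-galactosidase reporter signal in whole cells rather than isolated phosphatase activity; potency for inhibition where a drop in reporter signal means calcineurin blockade.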 The format is functional, cell-based.

A short description of assay [6]: HepG2 cell cytotoxicity, dose response, cytotoxicity control for Shn3 inhibitor project, CellTiter-Glo, cherry-picked (AID 624134). The format is functional, cell-based. On the technique in general: Cellular ATP, detected with luciferase, serves as a proxy for viable cell number.
Assay [7] concerns the target T2, Heat shock factor protein 1 (Mus musculus, UniProt P38532).
T2 sequence (P38532 whole entry): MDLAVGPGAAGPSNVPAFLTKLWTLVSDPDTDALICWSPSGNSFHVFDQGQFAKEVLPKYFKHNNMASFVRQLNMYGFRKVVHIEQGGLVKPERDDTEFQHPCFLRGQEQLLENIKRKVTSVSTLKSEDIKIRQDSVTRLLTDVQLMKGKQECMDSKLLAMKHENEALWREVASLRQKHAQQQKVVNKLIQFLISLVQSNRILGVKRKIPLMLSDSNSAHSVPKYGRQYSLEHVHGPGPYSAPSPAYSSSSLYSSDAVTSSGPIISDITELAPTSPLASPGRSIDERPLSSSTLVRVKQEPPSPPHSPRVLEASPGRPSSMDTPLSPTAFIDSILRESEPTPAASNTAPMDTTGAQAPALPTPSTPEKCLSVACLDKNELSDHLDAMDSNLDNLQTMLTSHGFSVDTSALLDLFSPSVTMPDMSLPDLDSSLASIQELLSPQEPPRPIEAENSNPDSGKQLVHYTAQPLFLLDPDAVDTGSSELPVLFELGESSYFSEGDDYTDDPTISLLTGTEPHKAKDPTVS
The assay is described as follows: HSF1 potentiators in luciferase reporter cells, confirmation, cell-based, NIH3T3, luminescence, dose retest (AID 435004).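 Further: stress induced by proteasome inhibitor MG132 added 30 min after compound; luciferase reporter driven by HSF1 response element in NIH3T3 cells; actives raise luminescence as potentiators of the MG132 stress response.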 The format is functional. In general terms: Reporter assays use an easily measured gene product as a stand-in for the process of interest.

A further assay in a line: cells. It counts as functional, cell-based.
Assay [8] concerns the target Tyrosine-protein kinase receptor TYRO3 (Homo sapiens, UniProt Q06418). It counts as functional.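 Further: TYRO3 value obtained as one member of a kinome-wide profiling panel.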
The target in assay [9] is Mitogen-activated protein kinase kinase kinase kinase 2 (Homo sapiens, UniProt Q12851). It counts as functional.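 Further: measured as one member of a kinome-wide kinase panel, with MAP4K2 as the panel entry.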
Assay [10] addresses Tyrosine-protein kinase Fyn (Homo sapiens, UniProt P06241). It counts as functional.
For another assay, the target named is Focal adhesion kinase 1 (Homo sapiens, UniProt Q05397). The format is functional.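 Further: measured as one member of a kinome panel.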
In assay [11] the target is Hepatocyte growth factor receptor (Homo sapiens, UniProt P08581). The format is functional.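 Further: kinase panel profiling across the kinome, with MET as the panel member.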
The target of assay [12] is Leukocyte tyrosine kinase receptor (Homo sapiens, UniProt P29376). Nature of the assay: Navigating the Kinome. Panel member name: LTK. The format is functional.
For the next assay, the target named is Activated CDC42 kinase 1 (Homo sapiens, UniProt Q07912). Nature of the assay: Navigating the Kinome. Panel member name: ACK1. It counts as functional.
Assay [13] deals with Tyrosine-protein kinase JAK3 (Homo sapiens, UniProt P52333). It counts as functional.
Assay [14] deals with Tyrosine-protein kinase BTK (Homo sapiens, UniProt Q06187). The format is functional.
Assay [15] deals with Dual specificity mitogen-activated protein kinase kinase 2 (Homo sapiens, UniProt P36507). The assay is described as follows: Navigating the Kinome. Panel member name: MAP2K2. It counts as functional.
Assay [16] has as its target Vascular endothelial growth factor receptor 1 (Homo sapiens, UniProt P17948). The format is functional.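 Further: measured within a kinome-wide profiling panel, FLT1 as the panel member.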
Assay [17] concerns the target Cyclin-dependent kinase 9 (Homo sapiens, UniProt P50750). It counts as functional.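 Further: value from the CDK9 entry of a kinome-spanning kinase panel.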

By AC50 is commonly meant the concentration giving half of the maximal activity seen. What is called EC50 is the concentration giving half of the maximal effect. One may read the IC50 as the concentration needed to halve the response being measured. The term Ki denotes a dissociation constant, usually derived from enzyme kinetics or from competition with a known ligand.

The source made the active and inactive calls. Some results are limits rather than exact numbers.

Chain of Leukocyte tyrosine kinase receptor (P29376 whole entry): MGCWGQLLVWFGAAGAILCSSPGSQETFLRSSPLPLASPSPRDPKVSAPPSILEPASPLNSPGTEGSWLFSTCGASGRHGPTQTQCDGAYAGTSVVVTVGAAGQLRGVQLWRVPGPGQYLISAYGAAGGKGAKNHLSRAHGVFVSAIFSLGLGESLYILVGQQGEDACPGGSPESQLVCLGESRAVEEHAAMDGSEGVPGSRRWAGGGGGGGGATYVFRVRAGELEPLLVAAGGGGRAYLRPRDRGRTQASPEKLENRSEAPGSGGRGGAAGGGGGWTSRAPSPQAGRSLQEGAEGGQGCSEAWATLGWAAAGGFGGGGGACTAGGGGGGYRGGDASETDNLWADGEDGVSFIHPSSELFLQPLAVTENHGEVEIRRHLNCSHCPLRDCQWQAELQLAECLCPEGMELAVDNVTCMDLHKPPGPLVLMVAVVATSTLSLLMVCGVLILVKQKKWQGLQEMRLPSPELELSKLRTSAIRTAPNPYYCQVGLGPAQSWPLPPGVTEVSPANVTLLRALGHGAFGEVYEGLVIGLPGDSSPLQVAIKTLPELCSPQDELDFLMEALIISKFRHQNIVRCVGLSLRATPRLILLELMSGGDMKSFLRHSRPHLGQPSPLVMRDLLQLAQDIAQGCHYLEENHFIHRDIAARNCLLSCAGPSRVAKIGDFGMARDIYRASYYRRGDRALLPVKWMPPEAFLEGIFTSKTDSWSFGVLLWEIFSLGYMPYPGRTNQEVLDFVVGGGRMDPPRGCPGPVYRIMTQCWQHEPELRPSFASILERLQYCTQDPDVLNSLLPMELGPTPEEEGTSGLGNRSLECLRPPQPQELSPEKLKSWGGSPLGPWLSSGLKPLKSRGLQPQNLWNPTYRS
Chain of Mitogen-activated protein kinase kinase kinase kinase 2 (Q12851 whole entry): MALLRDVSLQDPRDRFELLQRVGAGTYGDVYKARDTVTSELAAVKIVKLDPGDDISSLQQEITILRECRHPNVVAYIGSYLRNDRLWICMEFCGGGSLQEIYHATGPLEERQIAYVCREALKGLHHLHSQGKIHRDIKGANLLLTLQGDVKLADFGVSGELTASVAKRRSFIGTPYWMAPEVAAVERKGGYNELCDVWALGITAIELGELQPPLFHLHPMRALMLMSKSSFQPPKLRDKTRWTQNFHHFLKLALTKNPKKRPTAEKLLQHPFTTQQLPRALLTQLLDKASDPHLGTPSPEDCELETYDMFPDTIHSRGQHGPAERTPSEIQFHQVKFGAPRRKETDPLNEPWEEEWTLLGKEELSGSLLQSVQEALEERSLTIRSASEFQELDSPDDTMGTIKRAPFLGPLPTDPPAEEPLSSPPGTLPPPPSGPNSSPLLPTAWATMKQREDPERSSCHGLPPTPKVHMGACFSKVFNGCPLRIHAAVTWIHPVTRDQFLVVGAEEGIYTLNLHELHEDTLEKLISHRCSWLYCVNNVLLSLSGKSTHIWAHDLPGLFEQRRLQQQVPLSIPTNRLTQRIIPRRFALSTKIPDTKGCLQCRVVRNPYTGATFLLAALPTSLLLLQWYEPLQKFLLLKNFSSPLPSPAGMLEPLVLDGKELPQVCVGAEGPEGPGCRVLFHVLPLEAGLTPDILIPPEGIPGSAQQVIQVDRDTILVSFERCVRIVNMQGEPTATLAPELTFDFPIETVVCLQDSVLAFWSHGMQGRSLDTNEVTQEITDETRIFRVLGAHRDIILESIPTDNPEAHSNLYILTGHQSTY
Chain of ATP-dependent molecular chaperone HSP82 (C4YTQ8 whole entry): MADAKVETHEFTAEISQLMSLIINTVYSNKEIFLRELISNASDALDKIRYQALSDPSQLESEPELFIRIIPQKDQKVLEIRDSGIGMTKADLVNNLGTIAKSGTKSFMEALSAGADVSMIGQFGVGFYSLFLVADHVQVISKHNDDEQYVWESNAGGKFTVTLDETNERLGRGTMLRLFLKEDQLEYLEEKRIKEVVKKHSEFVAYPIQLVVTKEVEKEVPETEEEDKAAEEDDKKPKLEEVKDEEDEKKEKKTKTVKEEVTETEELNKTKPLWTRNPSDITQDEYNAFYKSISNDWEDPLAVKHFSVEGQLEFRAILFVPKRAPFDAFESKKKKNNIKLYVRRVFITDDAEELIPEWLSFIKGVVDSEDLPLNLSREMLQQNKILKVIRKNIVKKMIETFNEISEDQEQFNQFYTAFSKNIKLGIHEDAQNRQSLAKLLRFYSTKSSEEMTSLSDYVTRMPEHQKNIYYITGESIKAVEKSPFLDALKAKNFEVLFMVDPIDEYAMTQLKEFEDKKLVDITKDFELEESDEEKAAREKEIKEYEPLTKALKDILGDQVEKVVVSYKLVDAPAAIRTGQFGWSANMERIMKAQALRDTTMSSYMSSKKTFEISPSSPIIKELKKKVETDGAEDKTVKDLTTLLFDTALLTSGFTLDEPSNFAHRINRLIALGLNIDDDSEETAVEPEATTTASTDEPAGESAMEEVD
Chain of Tyrosine-protein kinase JAK3 (P52333 whole entry): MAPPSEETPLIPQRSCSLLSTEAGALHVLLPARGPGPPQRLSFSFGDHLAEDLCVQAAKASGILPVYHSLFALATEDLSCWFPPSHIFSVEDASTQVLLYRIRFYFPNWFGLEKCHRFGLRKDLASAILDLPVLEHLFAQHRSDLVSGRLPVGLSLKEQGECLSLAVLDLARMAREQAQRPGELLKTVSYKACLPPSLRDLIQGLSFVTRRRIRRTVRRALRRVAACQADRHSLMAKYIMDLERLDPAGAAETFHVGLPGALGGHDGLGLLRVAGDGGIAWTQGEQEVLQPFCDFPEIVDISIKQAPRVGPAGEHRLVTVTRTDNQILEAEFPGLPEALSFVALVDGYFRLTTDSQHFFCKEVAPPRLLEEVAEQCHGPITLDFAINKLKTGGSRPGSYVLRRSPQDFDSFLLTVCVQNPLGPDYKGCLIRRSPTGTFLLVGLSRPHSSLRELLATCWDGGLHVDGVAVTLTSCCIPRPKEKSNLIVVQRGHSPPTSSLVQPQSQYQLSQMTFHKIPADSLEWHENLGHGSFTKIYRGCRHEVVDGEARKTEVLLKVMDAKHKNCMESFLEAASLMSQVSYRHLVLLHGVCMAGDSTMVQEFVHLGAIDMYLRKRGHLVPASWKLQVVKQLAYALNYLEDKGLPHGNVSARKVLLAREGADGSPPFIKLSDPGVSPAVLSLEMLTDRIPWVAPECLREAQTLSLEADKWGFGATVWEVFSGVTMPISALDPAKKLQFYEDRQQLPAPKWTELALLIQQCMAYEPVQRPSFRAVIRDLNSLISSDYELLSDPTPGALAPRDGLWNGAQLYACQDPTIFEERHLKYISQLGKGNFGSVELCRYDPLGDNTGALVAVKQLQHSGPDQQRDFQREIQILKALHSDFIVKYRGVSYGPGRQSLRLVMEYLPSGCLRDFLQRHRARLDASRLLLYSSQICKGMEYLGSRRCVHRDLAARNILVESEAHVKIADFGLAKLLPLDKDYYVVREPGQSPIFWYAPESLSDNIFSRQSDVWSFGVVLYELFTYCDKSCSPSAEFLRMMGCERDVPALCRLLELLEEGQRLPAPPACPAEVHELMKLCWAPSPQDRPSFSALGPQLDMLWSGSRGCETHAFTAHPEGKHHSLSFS
Chain of Dual specificity mitogen-activated protein kinase kinase 2 (P36507 whole entry): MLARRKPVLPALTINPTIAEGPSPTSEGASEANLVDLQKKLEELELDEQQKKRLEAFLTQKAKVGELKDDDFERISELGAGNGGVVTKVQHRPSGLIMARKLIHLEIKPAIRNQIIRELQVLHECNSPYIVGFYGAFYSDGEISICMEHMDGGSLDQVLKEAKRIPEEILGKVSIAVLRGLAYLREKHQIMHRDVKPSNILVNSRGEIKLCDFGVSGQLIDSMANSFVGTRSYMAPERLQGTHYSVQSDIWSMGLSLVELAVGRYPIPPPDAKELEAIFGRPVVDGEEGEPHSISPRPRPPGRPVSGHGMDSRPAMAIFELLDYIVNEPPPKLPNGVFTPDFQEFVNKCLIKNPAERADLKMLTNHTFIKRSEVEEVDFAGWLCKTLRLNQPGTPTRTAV
Chain of Cyclin-dependent kinase 9 (P50750 whole entry): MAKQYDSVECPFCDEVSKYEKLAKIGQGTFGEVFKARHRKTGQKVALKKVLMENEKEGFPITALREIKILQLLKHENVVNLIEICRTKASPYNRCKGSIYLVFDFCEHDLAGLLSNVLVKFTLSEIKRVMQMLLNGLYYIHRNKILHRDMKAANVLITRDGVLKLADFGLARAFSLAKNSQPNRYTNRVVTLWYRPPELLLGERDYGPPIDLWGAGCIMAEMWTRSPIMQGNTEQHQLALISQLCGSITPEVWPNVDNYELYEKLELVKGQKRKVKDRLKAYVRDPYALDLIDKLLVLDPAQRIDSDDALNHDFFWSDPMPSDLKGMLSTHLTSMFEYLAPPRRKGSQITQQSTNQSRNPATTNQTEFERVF
Chain of Tyrosine-protein kinase BTK (Q06187 whole entry): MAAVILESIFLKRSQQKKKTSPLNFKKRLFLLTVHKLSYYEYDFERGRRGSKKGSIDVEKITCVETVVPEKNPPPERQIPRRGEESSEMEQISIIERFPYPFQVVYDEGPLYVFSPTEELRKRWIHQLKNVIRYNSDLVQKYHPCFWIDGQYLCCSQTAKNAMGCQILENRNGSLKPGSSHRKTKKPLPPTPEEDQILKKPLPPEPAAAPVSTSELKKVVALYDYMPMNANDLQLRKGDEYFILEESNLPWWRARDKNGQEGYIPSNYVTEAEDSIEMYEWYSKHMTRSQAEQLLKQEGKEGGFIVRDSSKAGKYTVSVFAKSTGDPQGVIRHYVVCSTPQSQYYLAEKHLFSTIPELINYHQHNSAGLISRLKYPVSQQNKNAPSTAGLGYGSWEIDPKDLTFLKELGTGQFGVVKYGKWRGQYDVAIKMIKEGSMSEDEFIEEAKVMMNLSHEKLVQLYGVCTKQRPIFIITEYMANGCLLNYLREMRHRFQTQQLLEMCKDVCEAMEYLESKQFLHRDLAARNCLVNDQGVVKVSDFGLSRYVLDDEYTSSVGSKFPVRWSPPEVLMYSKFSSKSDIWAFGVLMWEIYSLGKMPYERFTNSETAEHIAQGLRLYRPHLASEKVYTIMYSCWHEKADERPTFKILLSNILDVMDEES

In the case of `CCc1cc[n+](C2=C([N-]S(=O)(=O)c3cccs3)C(=O)c3ccccc3C2=O)cc1`, the AC50 with A-375 was 35400 nM (active).

In the case of `O=C(NC1=C(NC2CCS(=O)(=O)C2)C(=O)c2ccccc2C1=O)c1ccccc1` (stereo unspecified), the AC50 in assay [1] is 36500 nM (active).

For `CCCC(=O)NC(c1ccc(N(C)C)cc1)c1ccc2cccnc2c1O` (stereo unspecified), the EC50 in assay [2] was > 160000 nM (inactive); in [5], > 180000 nM (inactive); in assay [7] it was > 260000 nM (inactive); in the assay “cells”, 4760 nM (active). Also, in assay [3], the IC50 is > 119000 nM (inactive). In addition, the results for the AC50 in [4] and in assay [6] were 916 nM (active) and 2090 nM (active), respectively.

On to `O=C1NC(=O)C(c2c[nH]c3ccccc23)=C1c1nc(N2CCNCC2)nc2ccccc12`, for which the Ki is > 2000 nM (inactive) in assay [8]; 1000 nM (active) in [9]; > 6310 nM (inactive) in assay [10]; 2000 nM (active) at Focal adhesion kinase 1; 398 nM (active) in assay [11]; 794 nM (active) in [12]. Moreover, the Ki was > 3980 nM (inactive) on Activated CDC42 kinase 1; 1260 nM (active) in assay [13]; > 6310 nM (inactive) in assay [14]; 1260 nM (active) in assay [15]; > 2510 nM (inactive) in assay [16]; 316 nM (active) in assay [17].

The values are drawn from ChEMBL document CHEMBL1201862, “PubChem BioAssay data set” (2004).
